Assay results reported in patent US20230340012A1, “NATURAL AND SYNTHETIC COMPOUNDS FOR TREATING CANCER AND OTHER DISEASES” (PACIFIC ARROW LIMITED, priority 2009, published 2023).
Several values for one entry are separate records, joined by “and”; a condition that tells them apart may be missing. Equal entries are not always repeated.

Tests used:
[1] = tested on: Human leukemia cells K562; assay: Inhibition of cell cycling, K562, flow cytometry; assay type: cell-based; details: K562, three days
Protocol: • 1. Method: Cells: Human leukemia cells K562 cultured in RPMI1640 medium. • 2. Drug: compound from present application or Tig-S (1000x stock solution in DMSO). • 3. Start cells concentration: 500000 /ml. • 4. Cells were cultured with drug (0 - 20 ug/ml) for total of three days. • 5. Cells were harvested by centrifugation (136xg, 6 minutes); fixed with 70% ethanol and kept in -20° C. before staining. • 6. Staining: Fixed cells were stained with Propidium iodide/RNase A/0.1% Triton X-100 in PBS. • 7. Flow Cytometry Analysis was performed in Baylor Core Facility with a LSRII instrument. • 8. Analysis: Single cell was gated and cell count - FL2-Area histogram were plotted. • 9. Cell distribution in different cell-cycle phases (G0/G1, S, G2/M) was analyzed.

[2] = tested on: Human leukemia cells K562; assay: Inhibition of human leukemia K562 cells, cell counting; assay type: cell-based
Protocol: Method: • 1. Cells: Human leukemia cells K562 in RPMI1640 medium. • 2. Drug: Tig-S (1000x stock solution in DMSO). • 3. Start cells concentration: […] (500000/ml). • 4. Cells were cultured with or without drug for total of four days. • 5. Cell number is doubled after 2 days of incubation. Fresh medium (equal volume, with or without drug) was then added to culture. • 6. Cells were counted every day.

[3] = tested on: Human leukemia cells K562; assay: Apoptosis in K562 cells, Annexin V / propidium iodide flow cytometry; assay type: cell-based; details: for apoptotic cells population: two days, background 10-15%
Protocol: • 1. Cells: Human leukemia cells K562 cultured in RPMI1640 medium. • 2. Drug: Tig-S (1000x stock solution in DMSO). • 3. Start cells concentration: 500000/ml. • 4. Cells were cultured with drug (0 - 20 ug/ml) for Two days. • 5. Collect cells from culture (1 - 4 million) by centrifugation (136xg for 5 min. remove supernatant). • 6. Wash cells with 1 ml of cold PBS, collect cells by centrifugation (136xg, 5 min, remove supernatant). • 7. Re-suspend cells in 200 ul Binding buffer (10 mM HEPES, 140 mM NaCl, 2.5 mM CaCl2, pH 7.4). • 8. Stained cells by adding 10 ul Annexin V (Alexa Fluor 488, Invitrogen cat# A13201), and 2 ul Propidium iodide (1 mg/ml in water) to cell suspension. Mix. • 9. Sit at Room temperature for 15 min. • 10. Wash cells with 1 ml binding buffer. Collect cells by centrifugation. • 11. Re-suspend cells with in 1 ml of binding buffer for analysis by flow cytometry. • 12. Flow Cytometry analysis was performed in Baylor Core Facility with a LSRII instrument. • 13. Analysis: Control cells stained with PI or Annexin V-488 (Annexin V-FITC) alone were served as references. About 50000 cells were analyzed for each sample. • 14.Cell distribution in following groups: live, early apoptosis, late-apoptosis, total apoptosis and dead cells were determined. • 15.

Swiss3T3 cells = assay: MTT cytotoxicity, Swiss3T3 mouse normal fibroblast; assay type: cell-based; details: preliminary results
Protocol: Swiss3T3 cells are mouse normal fibroblast which were used in this experiment to compare with ES2 (human ovarian cancer) in Tig-R cytotoxicity determination.
MTT Assay. The procedure for MTT assay followed the method described by Carmichael et al. (1987) with modifications. The cells were seeded into a 96-well plate at for 24 hours before drug-treatment. The cells were then exposed to the drugs for 48, 72, or 96 hours. After the drug-treatment, MTT (0.5 mg/mL) was added to cultures and incubated for an hour. The formazan (product of the reduction of tetrazolium by viable cells) formed and was dissolved with DMSO and the O.D. at 490 nm, and was measured by an ELISA reader. The MTT level of the cells before drug-treatment was also measured (T0). The % cell-growth (%G) is calculated as: %G = (TD-T0 / TC-T0) x 100(1), where TC or TD represents O.D. readings of control or drug-treated cells. When T0 > TD, then the cytotoxicity (LC) expressed as % of the control is calculated as: %LC = (TD-T0 / T0) × 100(2).

[4] = tested on: DR5 (TNFRSF10B) in HepG2 cells; assay: DR5 Western blot, HepG2 cells; assay type: cell-based, human; details: 2 days
Protocol: (§1) A. Cells and drug-treatment: HepG2 cells (liver cancer cells), CAPAN cells, ES2 cells (Ovary cell) were cultured in DMEM medium with 10% FBS, antibiotics (Pen Strep) and L-Glutamine in a 37° C., 5% CO2 incubator. Cells in log-growth phase were treated with Tig-R (10 ug/ml), Tig-S (4 ug/ml) or DMSO (as control) for 2 days.
(§2) B. Total cell protein extraction: Drug-treated cells were collected, pelleted with centrifugation. The cell pellet was extracted with SDS-Sample buffer (containing PMSF and protease inhibitors cocktail). About 0.1 gram cell pellet was extracted in 1 ml of extraction buffer. The cell extract was then incubated in boiling water bath for 6 minutes with occasionally vortexing. The protein extract was immediately frozen in -80° C. before used.
(§3) C. SDS gel electrophoresis: 10-20 ug of protein sample was loaded into each lane of a 10% SDS gel. Electrophoresis was conducted with 100 volt constant for 2 hours.
(§4) D. Western Blot: Separated proteins from SDS gel were transferred to a nitrocellulose membrane, which was blocked with 5% non-fat dry milk. The membrane was then exposed to 1st antibody (anti-TNFRSF10B) over night, then washed. The membrane was then incubated in 2nd antibody (anti-mouse-AP conjugated) for an hour, then washed. The immuno-bands were developed with BCIP/NBT substrate.
(§5) E. Another SDS gel with same sample loading was stained with Coomassie Brilliant Blue (CBB) for protein staining.
(§6) F. Determination of Western blot band intensity: The band-images of Western blot were captured with a digital camera and the intensity of bands was determined using “Image J” software.

[5] = tested on: DR5 (TNFRSF10B) in CAPAN cells; assay: DR5 Western blot, CAPAN cells; assay type: cell-based, human; details: Tig-R 10 ug/ml, 2 days
Protocol: as §1, §2, §3, §4, §5, §6

[6] = tested on: DR5 (TNFRSF10B) in ES2 cells; assay: Induction of DR5 in ES2 cells, Western blot; assay type: cell-based, human; details: experiment 1, column head R 7.5, 2 days
[7] = HepG2 cells, Tig-R 10 ug/ml, single experiments 1-4

Compound | concentration from which cells in G2/M phase decrease [1] [µg/mL] | effect on cell cycle [1] | No growth (IC100), K562 ([2]; beginning on day 2) [µg/mL] | IC50, Leukemia K562 cells growth ([2]; cell counting, up to four days) | apoptotic cells population ([3]; 2.5 ug/ml) [%] | apoptotic cells population ([3]; 20 ug/ml) [%] | mechanism of cell death ([3]; K562) | IC50 in SW3T3 cells (Swiss3T3 cells) | increase of DR5 over DMSO control cells ([4]; HepG2, Tig-R 10 ug/ml) [%] | DR5 band intensity, % of DMSO, Average (%) ([4]; HepG2 cells, Tig-R 10 ug/ml, average of 4 experiments, SD 37) | DR5 Western blot band intensity (Image J) [4, 7] | DR5 band intensity, % of DMSO [4, 7] | DR5 Western blot band intensity (Image J) ([5]; CAPAN cells) | DR5 band intensity, % of DMSO ([5]; CAPAN cells) [%] | increase of DR5 over DMSO control cells ([5]; CAPAN) [%] | DR5 Western blot band intensity (Image J) [6] | DR5 band intensity, % of DMSO [6] [%]
CC=C(C)C(=O)OCC1(C)C(O)CCC2(C)C1CCC1(C)C2CC=C2C3CC(C)(C)C(OC(=O)C(C)=CC)C(O)C3(CO)C(O)CC21C (centres unmarked) [Tig-S] | ≥ 0.6 | arresting cells in the S-phase | ≥ 2.5 | about 0.6 ug/ml | 15 | 27 | induces cell-death by the apoptosis mechanism |  |  |  |  |  |  |  |  |  | 
24,28-O-Tigloyl-3β,16α, 21β, 22a, 24β, 28-hexahydroxyolean-12-ene [Tig-R] |  |  |  |  |  |  |  | above 20 ug/ml | 69 | 169 | 31752 and 19291 and 22435 and 33645 | 194% and 122% and 202% and 156% | 29128 | 151 | 51 | 29902 | 157
